Data from patent US20030187059A1, “Methods and compounds useful in inhibiting oxidative and/or free radical damage and in the treatment and prevention of disease” (priority 2002, published 2003).

Tested on: rat liver microsomes
Test: Inhibition of ferrous ion-stimulated formation of maliondialdehyde (lipid peroxidation) in rat liver microsomes
Assay type: biochemical
Conditions: ferrous sulfate 1 mM, 37° C. for 1 hour, test compound in DMSO, read-out: IC50, inhibition of production of MDA (as measured by the MDA-TBA adduct)
Protocol: The in vitro antioxidant activity of Compound MH-1 was evaluated by measuring its inhibitory effect on the ferrous ion-stimulated formation of maliondialdehyde (“MDA”), an end product of lipid peroxidation, in rat liver microsomes. The antioxidant activity of Compound MH-1 was compared with the in vitro antioxidant activity of α-tocopherol, a known antioxidant. A modified procedure originally described in Bernheim et al., “The Reaction Between Thiobarbituric Acid and the Oxidation Products of Certain Lipids,” J. Biol. Chem., 174:257-264 (1948) and Wills, “Lipid Peroxide Formation in Microsomes,” Biochem. J., 113:325-332 (1969), which are hereby incorporated by reference, was used to carry out the assay.
Freshly harvested rat livers (100 mg/ml) were homogenized in Tris-KCl buffer (0.05M, pH 7.4). The microsomal fraction was isolated by differential centrifugation (40,000 rpm; 106,000 g) and resuspended in Tris-KCl (100 mg/ml, initial concentration). The microsomal suspension was incubated with or without the test compound (Compound MH-1 in DMSO, 0.0-0.5mM or α-tocopherol in dimethylsulfoxide, 0.0-0.6 mM) at 37° C. for 3 minutes. […] Maliondialdeyde-TBA adduct concentrations in the butanol extract were measured by fluorescence spectroscopy (emission 553 nm, excitation 532 nm). […]

| IC50 | SMILES |
| --- | --- |
| 266 µM | Cc1c(C)c2c(c(C)c1OC(=O)CCCC[C@@H]1CCSS1)CC[C@@](C)(CC[C@H](C)CCC[C@H](C)CCCC(C)C)O2 [Compound MH-1] |
| 307 µM | Cc1c(C)c2c(c(C)c1O)CC[C@@](C)(CCC[C@H](C)CCC[C@H](C)CCCC(C)C)O2 [α-tocopherol] |
